The values that follow come from article PMC8954831, “Design, Synthesis, Molecular Docking, and Biological Evaluation of Pyrazole Hybrid Chalcone Conjugates as Potential Anticancer Agents and Tubulin Polymerization Inhibitors” (Pharmaceuticals, 2022).

Read-outs that look alike come from different tables or passages of the source. Where only a bound is given, the exact number is not on record here.

The test system of data set [1] is MCF-7 (breast cancer cell line). Briefly: In vitro cytotoxicity, MTT assay, MCF-7. Type of data set: cell-based, human. The protocol: (§1) The resultant compounds were tested for their in vitro cytotoxic activity by MTT assay against breast (MCF-7), cervical (SiHa), and prostate (PC-3) cancer cell lines, and the human embryonic kidney cell line (HEK). […] Subsequently, SAR studies were done by investigating the effect of substituents on cytotoxic activity.
(§2) Human cervical cancer cell line SiHa, human breast cancer cell line MCF-7, human prostate cancer cell line PC-3, and human embryonic kidney HEK-293 cells were procured from the National Centre for Cell Sciences (NCCS) Pune, India. In this experiment, antibiotics (100 units/mL penicillin and 100 mg L^−1 streptomycin were grown as a monolayer culture in Dulbecco’s modified Eagle’s medium containing 10% fetal bovine serum) were cultured in a humidified atmosphere of 5% CO2 at 37 °C in T-75 flasks and subcultured twice a week.
(§3) The cytotoxic effects of the selected compounds were evaluated by MTT assay on the above-mentioned cell lines. Initially, 2 × 10^4 cells/well were seeded into 96-well plates (150 µL/well) in triplicates and allowed to grow. The cells were incubated for 24 h and subsequently treated with varying concentrations of the compounds. After 48 h, the cells were incubated with 20 μL of MTT (5 mg/mL in PBS) in a fresh medium for 4 h at 37 °C. MTT is a metabolic substrate that is reduced to give formazan crystals, which were solubilized in DMSO (150 µL/well) and analyzed by reading the absorbance at 540 nm after 15 min of the incubation period on the iMark Microplate Reader (Bio-Rad). Percentage viability and IC50 values were used to determine the relative absorbance of treated versus control (untreated) cells.
(Tetrazolium dyes change colour on reduction, which living cells bring about.)

Data set [2] has as its system SiHa (cervical cancer cell line). The data set can be described thus: In vitro cytotoxicity, MTT assay, SiHa. Type of data set: cell-based. To be noted: Homo sapiens, 48 h, read-out: IC50 SiHa. The protocol: as §1, §2, §3
Data set [3] relates to PC-3 (prostate cancer cell line). Briefly: In vitro cytotoxicity, MTT assay, PC-3. The format is cell-based. As to conditions: Homo sapiens, 48 h, read-out: IC50 PC3. The protocol:
as §1, §2, §3

Data set [4] relates to HEK-293 (human embryonic kidney cells). The data set can be described thus: In vitro cytotoxicity, MTT assay, HEK-293 normal cells. Type of data set: cell-based. To be noted: for IC50: read-out: IC50 HEK-293. The protocol: as §1, §2, §3
The target of data set [5] is tubulin (purified brain tubulin) (Sus scrofa, UniProt P02550+P02554). Briefly: In vitro tubulin polymerization assay (fluorescence). The format is biochemical. As to conditions: for inhibition at 10 µM: read-out: % Inhibition of Tubulin Polymerization at 10 µM; for inhibition at 3 µM: read-out: % Inhibition of Tubulin Polymerization. The protocol:
The α and β tubulin subunits are recognized by heterodimers and self-assemble into a stable microtubule in a time-dependent manner. Assessment of the inhibitory effect of new pyrazolic chalcone conjugates on tubulin polymerization was also carried out. The progression of tubulin polymerization was thus examined by monitoring the increase in the fluorescence intensity at 450 nm (excitation wavelength of 360 nm) in a 384-plate for 1 h at 37 °C with and without the conjugate at 10 µM concentration. CA-4 (6 µM) and Vincristine (3 µM) were used as the positive control, whereas paclitaxel (3 µM) was used as the negative control.
Tubulin polymerization is a dynamic process by enhancement of fluorescence intensity due to the combination of a fluorescent reporter into the microtubules as polymerization occurs. Tubulin polymerization was performed by using a purified brain tubulin polymerization kit purchased from Cytoskeleton (BK110P, Denver, CO, USA). The tubulin polymerization assay was monitored by the increase in fluorescence over a 60 min period at 37 °C, with excitation at 360 nm and emission at 450 nm. The final buffer concentration for tubulin polymerization contained 80 mM PIPES, pH 6.9; 2 mM MgCl2; 0.5 mM EGTA; […]; and 15% glycerol. Firstly, 5 µL of the test compounds (final concentration of 10 µM) was added and then warmed to 37 °C for 1 min. The reaction was initiated by adding 50 µL of the tubulin reaction mix as specified for 6 min.

[6] abbreviates: Homo sapiens, MCF7, MTT, 48 h, breast cancer, read-out: IC50 MCF-7.
Where [7] appears, read: HEK293, MTT, 48 h, human normal cell line.

tubulin (purified brain tubulin), sequence (P02550 whole entry): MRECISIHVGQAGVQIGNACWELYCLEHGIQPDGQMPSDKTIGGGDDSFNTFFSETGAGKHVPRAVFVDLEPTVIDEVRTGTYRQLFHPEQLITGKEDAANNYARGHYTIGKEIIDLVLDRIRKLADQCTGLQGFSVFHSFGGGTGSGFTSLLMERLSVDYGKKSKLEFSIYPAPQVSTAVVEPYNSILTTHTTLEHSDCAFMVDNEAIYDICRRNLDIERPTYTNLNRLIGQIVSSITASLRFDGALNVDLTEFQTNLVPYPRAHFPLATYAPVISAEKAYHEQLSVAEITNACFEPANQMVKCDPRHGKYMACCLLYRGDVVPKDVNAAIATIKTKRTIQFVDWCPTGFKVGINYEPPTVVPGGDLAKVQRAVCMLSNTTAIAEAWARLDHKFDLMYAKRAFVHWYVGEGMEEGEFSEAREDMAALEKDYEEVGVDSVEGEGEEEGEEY
tubulin (purified brain tubulin), sequence (P02554 whole entry): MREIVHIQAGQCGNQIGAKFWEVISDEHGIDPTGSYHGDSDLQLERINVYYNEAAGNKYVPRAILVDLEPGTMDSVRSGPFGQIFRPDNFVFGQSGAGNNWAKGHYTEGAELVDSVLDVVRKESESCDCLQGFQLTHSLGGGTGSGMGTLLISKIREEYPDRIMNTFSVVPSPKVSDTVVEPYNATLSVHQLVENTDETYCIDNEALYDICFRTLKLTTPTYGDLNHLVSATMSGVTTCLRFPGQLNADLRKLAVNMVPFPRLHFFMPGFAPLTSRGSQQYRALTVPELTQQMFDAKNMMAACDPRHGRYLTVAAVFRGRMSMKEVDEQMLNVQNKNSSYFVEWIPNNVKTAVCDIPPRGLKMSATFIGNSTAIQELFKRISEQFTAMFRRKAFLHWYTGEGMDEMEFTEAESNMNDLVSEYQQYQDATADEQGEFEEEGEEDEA

The IC50 is the concentration at which inhibition is half-maximal. For `COc1ccc(/C=C\c2cc(OC)c(OC)c(OC)c2)cc1O` [Combretastatin A-4, reference compound], the IC50 was 4.12 to 5.23 µM in data set [1] (Homo sapiens, MCF7, 48 h, read-out: IC50 MCF-7, MTT, 48 h, breast cancer); 4.12 ± 0.38 µM in data set [1] (read-out: IC50 MCF-7, MTT, 48 h, breast cancer, listed as CA-4); 5.23 ± 0.85 µM in data set [2]; 3.86 ± 0.39 µM in data set [3]; 19.2 ± 1.65 µM in data set [4] (Homo sapiens, HEK293, 48 h).
A word on the melting point: it is the temperature of the solid-liquid transition. Regarding `O=C(/C=C/c1cn(-c2ccccc2)nc1-c1ccc(OCc2ccccc2)cc1)c1ccccc1Cl` [Compound 5b, (E)-3-(3-(4-(benzyloxy)phenyl)-1-phenyl-1H-pyrazol-4-yl)-1-(2-chlorophenyl)prop-2-en-1-one], the melting point fell in the range of 182 to 184 °C.
In the case of `O=C(/C=C/c1cn(-c2ccccc2)nc1-c1ccc(OCc2ccccc2)cc1)c1cccc([N+](=O)[O-])c1` [Compound 5c, (E)-3-(3-(4-(benzyloxy)phenyl)-1-phenyl-1H-pyrazol-4-yl)-1-(3-nitrophenyl)prop-2-en-1-one], the melting point was 203 to 205 °C.
In general, inhibition refers to the change of the read-out against control, counted positive when it falls. For the molecule `O=C(/C=C/c1cn(-c2ccccc2)nc1-c1ccc(OCc2ccccc2)cc1)c1cccc(O)c1` [Compound 5d, (E)-3-(3-(4-(benzyloxy)phenyl)-1-phenyl-1H-pyrazol-4-yl)-1-(3-hydroxyphenyl)prop-2-en-1-one], the melting point lay in the range of 184 to 186 °C. In addition, the inhibition at 10 µM in data set [5] was determined as 49.8%. In data set [1] (setting [6]), the IC50 was 4.1 ± 1.12 µM. For the same molecule, the IC50 in data set [2] (MTT, cervical cancer) was 4.85 ± 0.89 µM. The IC50 in data set [3] (MTT, prostate cancer) was determined as 2.97 ± 0.88 µM. Further, the IC50 in data set [4] (setting [7]) is more than 50 µM.
In the case of `O=C(/C=C/c1cn(-c2ccccc2)nc1-c1ccc(OCc2ccccc2)cc1)c1ccc(Cl)cc1` [Compound 5e, (E)-3-(3-(4-(benzyloxy)phenyl)-1-phenyl-1H-pyrazol-4-yl)-1-(4-chlorophenyl)prop-2-en-1-one], the inhibition at 10 µM in data set [5] was 48.4%. In addition, the IC50 in data set [1] (setting [6]) was 11.5 ± 1.62 µM; in data set [2] (MTT, cervical cancer), 12.3 ± 1.32 µM; in data set [3] (MTT, prostate cancer), 9.68 ± 1.42 µM; in data set [4] (setting [7]), more than 50 µM.
`O=C(/C=C/c1cn(-c2ccccc2)nc1-c1ccc(OCc2ccccc2)cc1)c1ccc(F)cc1` [Compound 5f, (E)-3-(3-(4-(benzyloxy)phenyl)-1-phenyl-1H-pyrazol-4-yl)-1-(4-fluorophenyl)prop-2-en-1-one] registered a melting point of 168 to 170 °C.
Same read-out and setting: to `O=C(/C=C/c1cn(-c2ccccc2)nc1-c1ccc(OCc2ccccc2)cc1)c1ccc(Br)cc1` [Compound 5g, (E)-3-(3-(4-(benzyloxy)phenyl)-1-phenyl-1H-pyrazol-4-yl)-1-(4-bromophenyl)prop-2-en-1-one] belongs 178 to 180 °C; to `O=C(/C=C/c1cn(-c2ccccc2)nc1-c1ccc(OCc2ccccc2)cc1)c1ccc(O)cc1` [Compound 5h, (E)-3-(3-(4-(benzyloxy)phenyl)-1-phenyl-1H-pyrazol-4-yl)-1-(4-hydroxyphenyl)prop-2-en-1-one], 167 to 169 °C.
The molecule `O=C(/C=C/c1cn(-c2ccccc2)nc1-c1ccc(OCc2ccccc2)cc1)c1ccc([N+](=O)[O-])cc1` [Compound 5i, (E)-3-(3-(4-(benzyloxy)phenyl)-1-phenyl-1H-pyrazol-4-yl)-1-(4-nitrophenyl)prop-2-en-1-one] registered a melting point of 223 to 225 °C. Moreover, the inhibition at 10 µM in data set [5] was determined as 28.4%. For the same molecule, in data set [1] (setting [6]), the IC50 was found to be 42.7 ± 0.34 µM. In data set [2] (MTT, cervical cancer), the IC50 is 34.5 ± 0.9 µM. Further, the IC50 in data set [3] (MTT, prostate cancer) worked out at 13.1 ± 1.6 µM. The IC50 in data set [4] (setting [7]) is 45.2 ± 2.6 µM.
For the molecule `Cc1ccc(C(=O)/C=C/c2cn(-c3ccccc3)nc2-c2ccc(OCc3ccccc3)cc2)cc1` [Compound 5j, (E)-3-(3-(4-(benzyloxy)phenyl)-1-phenyl-1H-pyrazol-4-yl)-1-(p-tolyl)prop-2-en-1-one], the melting point lay within 205 to 207 °C.
`COc1ccc(C(=O)/C=C/c2cn(-c3ccccc3)nc2-c2ccc(OCc3ccccc3)cc2)cc1` [Compound 5k, (E)-3-(3-(4-(benzyloxy)phenyl)-1-phenyl-1H-pyrazol-4-yl)-1-(4-methoxyphenyl)prop-2-en-1-one] came in with a melting point of 187 to 189 °C. Further, the inhibition at 10 µM in data set [5] turned out to be 32.8%. For the same molecule, the IC50 in data set [1] (setting [6]) came to 7.23 ± 0.74 µM. Further, the IC50 in data set [2] (MTT, cervical cancer) is 5.65 ± 0.71 µM. Further, the IC50 in data set [3] (MTT, prostate cancer) is 5.45 ± 0.94 µM. For the same molecule, in data set [4] (setting [7]), the IC50 was more than 50 µM.
Take `O=C(/C=C/c1cn(-c2ccccc2)nc1-c1ccc(OCc2ccccc2)cc1)c1ccc(Cl)c(Cl)c1` [Compound 5l, (E)-3-(3-(4-(benzyloxy)phenyl)-1-phenyl-1H-pyrazol-4-yl)-1-(3,4-dichlorophenyl)prop-2-en-1-one]: the melting point is 243 to 245 °C. For the same molecule, the inhibition at 10 µM in data set [5] is 55.2%. For the same molecule, the IC50 in data set [1] (setting [6]) turned out to be 8.23 ± 1.45 µM. Besides, the IC50 in data set [2] (MTT, cervical cancer) worked out at 11.7 ± 2.83 µM. Further, the IC50 in data set [3] (MTT, prostate cancer) is 5.84 ± 1.65 µM. Besides, the IC50 in data set [4] (setting [7]) was more than 50 µM.
On to `O=C(/C=C/c1cn(-c2ccccc2)nc1-c1ccc(OCc2ccccc2)cc1)c1ccc(Cl)cc1Cl` [Compound 5m, (E)-3-(3-(4-(benzyloxy)phenyl)-1-phenyl-1H-pyrazol-4-yl)-1-(2,4dichlorophenyl)prop-2-en-1-one], for which the melting point was 192 to 194 °C. The inhibition at 10 µM in data set [5] came out at 33.8%. In addition, the IC50 in data set [1] (setting [6]) stood at 17.1 ± 2.25 µM. In data set [2] (MTT, cervical cancer), the IC50 was 6.46 ± 1.52 µM. For the same molecule, the IC50 in data set [3] (MTT, prostate cancer) was 11.2 ± 1.44 µM. In data set [4] (setting [7]), the IC50 is more than 50 µM.
On to `O=C(/C=C/c1cn(-c2ccccc2)nc1-c1ccc(OCc2ccccc2)cc1)c1ccc(O)cc1O` [Compound 5n, (E)-3-(3-(4-(benzyloxy)phenyl)-1-phenyl-1H-pyrazol-4-yl)-1-(2,4-dihydroxyphenyl)prop-2-en-1-one], for which the melting point was in the range of 176 to 178 °C. Besides, the inhibition at 10 µM in data set [5] came to 47.6%. Also, in data set [1] (setting [6]), the IC50 was 6.98 ± 1.12 µM. Also, in data set [2] (MTT, cervical cancer), the IC50 is 3.6 ± 0.45 µM. The IC50 in data set [3] (MTT, prostate cancer) is 3.56 ± 0.63 µM. Further, the IC50 in data set [4] (setting [7]) was more than 50 µM.
The molecule `COc1ccc(C(=O)/C=C/c2cn(-c3ccccc3)nc2-c2ccc(OCc3ccccc3)cc2)cc1OC` [Compound 5o, (E)-3-(3-(4-(benzyloxy)phenyl)-1-phenyl-1H-pyrazol-4-yl)-1-(3,4-dimethoxyphenyl)prop-2-en-1-one] gave a melting point of 206 to 208 °C. For the same molecule, the inhibition at 10 µM in data set [5] came to 66.4%. In data set [1] (setting [6]), the IC50 came to 2.13 ± 0.8 µM. The IC50 in data set [2] (MTT, cervical cancer) came out at 4.34 ± 0.98 µM. Further, the IC50 in data set [3] (MTT, prostate cancer) amounted to 4.46 ± 0.53 µM. Besides, the IC50 in data set [4] (setting [7]) is more than 50 µM. For the same molecule, the “toxicity to the HEK cells” value in data set [4] (in words) is “did not exhibit significant toxicity”.
For the molecule `COc1ccc(C(=O)/C=C/c2cn(-c3ccccc3)nc2-c2ccc(OCc3ccccc3)cc2)c(Br)c1` [Compound 5q, (E)-3-(3-(4-(benzyloxy)phenyl)-1-phenyl-1H-pyrazol-4-yl)-1-(2-bromo-4-methoxyphenyl)prop-2-en-1-one], the melting point lay in the range of 174 to 176 °C.
As for `CC(=O)O[C@H]1C(=O)[C@@]2(C)[C@H]([C@H](OC(=O)c3ccccc3)[C@]3(O)C[C@H](OC(=O)[C@H](O)[C@@H](NC(=O)c4ccccc4)c4ccccc4)C(C)=C1C3(C)C)[C@]1(OC(C)=O)CO[C@@H]1C[C@@H]2O` [Paclitaxel, paclitaxel, reference compound], the inhibition at 3 µM in data set [5] was -25.7%.
Take `CC[C@]1(O)C[C@H]2CN(CCc3c([nH]c4ccccc34)[C@@](C(=O)OC)(c3cc4c(cc3OC)N(C=O)[C@H]3[C@@](O)(C(=O)OC)[C@H](OC(C)=O)[C@]5(CC)C=CCN6CC[C@]43[C@@H]65)C2)C1` [Vincristine, reference compound]: the inhibition at 3 µM in data set [5] is 75.5%.
